# Assay results from the supplement of paper PMC3974653.
# Counter-ions that a name gives are not always drawn.
# System: MTT (mouse pheochromocytoma)
# Assay: IC50 of cell viability (ATP content)
# Conditions: (24 or 48 h)
# In short: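 Each well of a white 1536-well plate received 5 µl of MTT mouse pheochromocytoma cells at 200,000 cells/ml in DMEM containing 5% FBS and 1% horse serum. After overnight culture at 37°C, 5% CO2, cells were exposed for 24 or 48 hrs to 23 nl of library compound in DMSO, pinned at 8 final concentrations from 0.5 nM to 46 µM. CellTiter-Glo luminescence was read after 15 minutes, and IC50 was obtained from a four-parameter logistic fit of signals normalised to positive-control and DMSO wells.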
row,Compound,IC50 of cell viability
1,O=C(NC1N=C(c2ccccc2F)c2cccc3c2N(CC3)C1=O)c1cc2ccccc2[nH]1 (stereo in doubt),> 46 µM
2,"CCN(CC)CCO[C@H]1CC[C@@]2(C)C(=CC[C@@H]3C2CC[C@]2(C)C(=O)CCC32)C1 (stereo in doubt) [3b-(2-Diethylaminoethoxy)androst-5-en-17-one, HCl]",> 46 µM
3,COc1ccc2cc(C(C)C(=O)[O-])ccc2c1.[Na+] (stereo in doubt) [(R) -Naproxen sodium salt],> 46 µM
4,CNC1(c2ccccc2Cl)CCCCC1=O (stereo in doubt) [(R)-(+)-Ketamine],> 46 µM
5,CNC1(c2ccccc2Cl)CCCCC1=O (stereo in doubt) [(S)-(-)-Ketamine],> 46 µM
6,CC(=O)NC(CC(C)C)C(=O)O (stereo in doubt) [ACETYL-L-LEUCINE],> 46 µM
7,"O=C(O)C(O)[C@@H](O)[C@H](O)C(=O)CO (stereo in doubt) [D-XYLO-5-HEXULOSONIC ACID, CALCIUM SALT]",> 46 µM
8,NC(COP(=O)(O)O)C(=O)O (stereo in doubt) [O-PHOSPHO-L-SERINE],> 46 µM
9,CC(C)=CCCC(C)=CCCC(C)=CCC/C=C(\C)CC/C=C(\C)CCC=C(C)C (stereo in doubt) [Squalene],> 46 µM
10,"Clc1ccccc1Cl [1,2-Dichlorobenzene]",> 46 µM
11,"ClCC1CO1 (stereo unspecified) [1,2-Epoxy-3-chloropropane (Epichlorohydrin)]",> 46 µM
12,"Nc1ccccc1N [1,2-Phenylenediamine]",> 46 µM
13,"CC(O)CO (stereo unspecified) [1,2-Propylene glycol]",> 46 µM
14,"COc1cc(OC)cc(OC)c1 [1,3,5-TRIMETHOXYBENZENE]",> 46 µM
15,"N=C1NC(=N)c2cc3ccccc3cc21 [1,3-Diiminobenz[f]isoindoline]",> 46 µM
16,"O=[N+]([O-])c1cc([N+](=O)[O-])c2ccccc2c1 [1,3-Dinitronaphthalene]",> 46 µM
17,"N=C(Nc1ccccc1)Nc1ccccc1 [1,3-Diphenylguanidine]",> 46 µM
18,"O=[S+]([O-])(O)CCC[S+](=O)([O-])O.[NaH] [1,3-PROPANEDISULFONIC ACID, DISODIUM SALT]",> 46 µM
19,"Nc1cccc2c(N)cccc12 [1,5-Diaminonaphthalene]",> 46 µM
20,"CCCC(=O)c1cc(O)c(O)cc1O [1-(2,4,5-trihydroxyphenyl)-1-butanone]",> 46 µM
21,C/C=C(\CC)C(=O)NC(N)=O [1-(2-ETHYLCROTONOYL)UREA],> 46 µM

row,Compound,IC50 of cell viability
1,COc1ccccc1N1CCNCC1.Cl [1-(2-Methoxyphenyl)piperazine hydrochloride],> 46 µM
2,CC(=O)OC1(c2ccccc2)CCN(CCc2ccccc2)CC1 [1-(2-Phenylethyl)-4-phenyl-4-acetoxypiperidine],> 46 µM
3,Clc1cccc(N2CCNCC2)c1 [1-(3-CHLOROPHENYL)PIPERAZINE],> 46 µM
4,c1ccc(CN2CCNCC2)cc1 [1-Benzylpiperazine],> 46 µM
5,"O=[N+]([O-])c1ccc(F)c([N+](=O)[O-])c1 [1-Fluoro-2,4-dinitrobenzene]",> 46 µM
6,CCC(=O)OC1(c2ccccc2)CCN(C)CC1 [1-Methyl-4-phenyl-4-propionoxypiperidine],> 46 µM
7,O=C(O)Cc1cccc2ccccc12 [1-Naphthalene acetic acid],> 46 µM
8,O=C(O)Cc1cccc2ccccc12 [1-Naphthaleneacetic acid],> 46 µM
9,N#CC1(N2CCCCC2)CCCCC1 [1-PIPERIDINOCYCLOHEXANECARBONITRILE],> 46 µM
10,CC1=NN(c2ccccc2)C(=O)C1 [1-Phenyl-3-methyl-5-pyrazolone],> 46 µM
11,NC1(c2ccccc2)CCCCC1 [1-Phenylcyclohexyl],> 46 µM
12,"Nc1ncnc2c1ncn2[C@H]1CC[C@@H](CO)O1 [2',3'-DIDEOXYADENOSINE]",> 46 µM
13,"NC/1=N/C(=O)N(/C=C1)[C@H]2CC[C@@H](CO)O2 [2',3'-Dideoxycytidine]",> 46 µM
14,"O=[N+]([O-])c1c(Cl)c(Cl)cc(Cl)c1Cl [2,3,5,6-Tetrachloronitrobenzene]",> 46 µM
15,"c1ccc2occc2c1 [2,3-Benzofuran]",> 46 µM
16,"O.O=S(=O)([O-])CC(S)CS.[Na+] (stereo unspecified) [2,3-DIMERCAPTOPROPANE-1-SULFONATE SODIUM]",> 46 µM
17,"CCCCCCCCCCCCCCCC(=O)OC[C@@H](COP(=O)([O-])OCC[N+](C)(C)C)OC(=O)CCCCCCCCCCCCCCC [2,3-Dipalmitoyl-sn-glycero-1-phosphocholine]",> 46 µM
18,"Oc1cc(Cl)c(Cl)cc1Cl [2,4,5-Trichlorophenol]",> 46 µM
19,"COc1cc(OC)c(OC)cc1C=O [2,4,5-Trimethoxybenzaldehyde]",> 46 µM
20,"Oc1c(Br)cc(Br)cc1Br [2,4,6-Tribromophenol]",> 46 µM
